Where a name gives a salt, the structure may show the parent alone.
Experiments:
[1] = Measurements of bulk density of mono- and dihydrochloride salts of Cobicistat; format: physicochemical; conditions: for volume filled by the salt in a glass cylinder (bulk density): about 0.30 g freely poured into glass cylinder without compaction, FIG. 12
Source text: Measurements of Bulk Density of Mono-and Dihydrochloride Salts of Cobicistat:
Cobicistat monohydrochloride and dihydrochloride, prepared according to examples 7 and 5 respectively, (about 0.30 g) were freely poured into two glass cylinders without compaction. While 0.30 g of Cobicistat monohydrochloride filled a volume of almost 5m1, 0.30 g of Cobicistat dihydrochloride filled a volume of less than 2m1.

[2] = Powder flowability / handling properties of Cobicistat hydrochloride salts; format: physicochemical; conditions: particle-shaped morphology, FIG. 9

volume filled by the salt in a glass cylinder (bulk density) [1]	bulk density compared with the monohydrochloride salt ([1]; as demonstrated in FIG. 12)	flowability of the powder material [2]	SMILES
less than 2 m1	substantially higher	highly flowable	CC(C)c1nc(CN(C)C(=O)N[C@@H](CCN2CCOCC2)C(=O)N[C@H](CC[C@H](Cc2ccccc2)NC(=O)OCc2cncs2)Cc2ccccc2)cs1 [Cobicistat dihydrochloride]
~5 m1	–	–	CC(C)c1nc(CN(C)C(=O)N[C@@H](CCN2CCOCC2)C(=O)N[C@H](CC[C@H](Cc2ccccc2)NC(=O)OCc2cncs2)Cc2ccccc2)cs1 [Cobicistat monohydrochloride, reference compound]
